Assays:
Type in all cases: cell-based
[1] = Follow-up 5 day cell growth assay WSU-NHL (CC50); settings: human, WSU-NHL cells
[2] = test system: CD4+FoxP3+CD25+ cell induction; assay: Development of human T-regulatory cells from naive CD4 T cells (FoxP3+CD25+ induction); settings: 3 donors, 0.4 μM, 0.4 μM and 4.0 μM
Description: Naïve CD4 T cell sorting and stimulation for regulatory T cell development A flat-bottom 48 well plate was coated with 250 μl of purified functional grade anti-human CD3 at 2 μg/ml in PBS. The plate was sealed and incubated at 37° C. for one hour. Peripheral blood mononuclear cells (PBMC) were isolated from human leucocyte reduction system cones by differential density centrifugation using Ficoll-PLUS (GE Healthcare). Cells were washed three times in RPMI+1% HI-FCS+1% penicillin/streptomycin (P/S) (1% RPMI), then resuspended at a concentration of 200×10^6/ml of 1% RPMI. An aliquot of cells was set aside for single colour controls, and the sample was stained at a dilution of 1:20 with anti-human CD4, anti-human CD45RA, anti-human CD25, and anti-human CD127 (antibodies from BioLegend and eBioscience) for 20 minutes on ice. Following the incubation, the stained PBMC were washed and resuspended at 50×10^6/ml in PBS+1% HI-FCS. Cells were sorted on a BD […] high speed cell sorter for the phenotype CD4+CD45RA+CD127+CD25-. Following the sort, cells were resuspended at 4×10^6/ml in pre-warmed cRPMI containing […] human IL-2 (final concentration 100 U/ml). […]
Staining Regulatory T Cell Cultures Induced regulatory T cell cultures were washed and counted. […]
CD4+ naïve T cells cultured for 10 days were analysed for their expression of FoxP3 and CD25. […]

[3] = test system: CMV-specific (NLV+) CD8+ Teff cells expressing IFNγ; assay: Human whole blood loop assay with CMV lysate; settings: 4 μM, 6 hours, alone and in combination with CMV lysate 1 μg/ml
Description: Each blood loop contained 2 mL of freshly taken human whole blood from HLA-A2+ and CMV+ donors.
Freshly drawn whole blood from healthy volunteers (2 mL) in a tube was incubated under rotation at 37° C. for 6 hours. […] After 2 hours Brefeldin-A was added to allow intra-cellular analysis of cytokines (IFNγ and TNFα). Antigen-specific CD8+ T-cells were identified by fluorescence-conjugated tetrameric complexes of HLA-A2 molecules loaded with the NLV peptide epitope ([…]) of CMV pp65,

CO[C@@H](C)c1c(NC(=O)Nc2cnc(-n3nccn3)c(Cl)c2)cnc2cc(Cl)nn12 [Example 2, (S)-1-(5-chloro-6-(2H-1,2,3-triazol-2-yl)pyridin-3-yl)-3-(2-chloro-7-(1-methoxyethyl)pyrazolo[1,5-a]pyrimidin-6-yl)urea]
CC50 at 5 days [1]: 77 µM
generation of a Treg phenotype and function ([2]; highest degree of inhibition with 4.0 μM): inhibit
CD4+FoxP3+CD25+ cell induction ([2]; IL-2+TGFβ, 10 days, highest concentration most effective): robust inhibition
activated antigen-specific IFNγ+CD8+ T cells [3]: increase
